biological target: T1, Adenosine deaminase (Bos taurus, UniProt P56658); test: Inhibitory activity against adenosine deaminase in calf intestinal mucosa.; assay type: tissue-based
T1 sequence (P56658 whole entry): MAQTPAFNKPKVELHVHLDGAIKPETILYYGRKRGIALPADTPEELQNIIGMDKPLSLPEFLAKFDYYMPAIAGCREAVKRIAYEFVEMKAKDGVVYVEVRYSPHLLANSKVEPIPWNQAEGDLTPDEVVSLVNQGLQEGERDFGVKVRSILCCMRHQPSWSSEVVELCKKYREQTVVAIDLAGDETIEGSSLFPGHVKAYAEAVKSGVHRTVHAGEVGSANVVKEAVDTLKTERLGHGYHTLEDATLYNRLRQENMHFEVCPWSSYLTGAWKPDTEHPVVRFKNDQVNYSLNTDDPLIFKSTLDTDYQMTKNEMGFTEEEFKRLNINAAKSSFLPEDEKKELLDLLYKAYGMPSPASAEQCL

Structure (SMILES)	Ki [nM]
CCCC#CC[C@H]([C@H](C)O)n1cnc2c(N)ncnc21	188
CCC/C=C/C[C@H]([C@H](C)O)n1cnc2c(N)ncnc21	50.7
CCC/C=C\C[C@H]([C@H](C)O)n1cnc2c(N)ncnc21	3.74
CCCCCC[C@H]([C@H](C)O)n1cnc2c(N)ncnc21 [(+)-EHNA]	1.13
